From the supplement of paper PMC5579334

Legend:
HS-Sch-2 [1] = experiment: % inhibition of CellTiter-Glo viability at highest tested concentration (72 h), relative to DMSO and benzethonium chloride controls; higher = more inhibition
How it was run: (§1)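 Viability was scored by CellTiter-Glo ATP luminescence, scaled from vehicle to positive-control wells, with duplicates averaged where present. The cells, MPNST lines and primary human Schwann cells at 750–1000 per well, sat 72 h at 37 °C, 5% CO2, in 384-well plates preprinted with each compound at five concentrations in 10-fold steps. Four-parameter logistic fits were run on the data. These fits give drug sensitivity score and relative IC50 censored at the top concentration, and percent inhibition is reported at the top concentration.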

HS-PSS [2] = experiment: as above
How it was run: as §1

YST-1 [3] = experiment: as above
How it was run: as §1

HS-PSS [4] = experiment: drug sensitivity score (DSS, CellTox-Green cytotoxicity, 72 h) (DSS (dimensionless)); higher = more cytotoxic; extreme values may be limits of the assay
How it was run: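 MPNST cell lines and primary human Schwann cells were incubated 72 h at 37 °C in 384-well plates holding five 10-fold compound dilutions. CellTox-Green was added before seeding at a final 1:1000 dilution and reported fluorescence from DNA released by disrupted cells. Signals were scaled to vehicle and positive-control wells, and cultures failing plate quality control were dropped. Drug sensitivity score and relative IC50 come from four-parameter logistic fits, with IC50 censored at the top concentration.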

HS-Sch-2 [5] = experiment: drug sensitivity score (DSS, CellTiter-Glo viability, 72 h) (DSS (dimensionless)); higher = more sensitive; extreme values may be limits of the assay
How it was run: as §1

HS-PSS [6] = experiment: as above
How it was run: as §1

YST-1 [7] = experiment: as above
How it was run: as §1

Structure (SMILES)	% inhibition (HS-Sch-2 [1])	% inhibition (HS-PSS [2])	% inhibition (YST-1 [3])	drug sensitivity score (HS-PSS [4])	drug sensitivity score (HS-Sch-2 [5])	drug sensitivity score (HS-PSS [6])	drug sensitivity score (YST-1 [7])
NC(=O)c1cccc2cn(-c3ccc(C4CCCNC4)cc3)nc12 (stereo unspecified) [Niraparib] (max concentration tested 10000 nM)	26.4%	50.4%	54.5%	0.21	2.37	4.28	7.91
CNC(=O)c1cccc2cc(Oc3ccnc4cc(OCC5(N)CC5)c(OC)cc34)ccc12 [Lucitanib] (max concentration tested 10000 nM)	31.9%	23.4%	26.4%	0	1.19	1.71	2.13
COc1ccc(Cl)c(Nc2nc3ccccc3nc2NS(=O)(=O)c2cccc(NC(=O)C(C)(C)N)c2)c1 [Pilaralisib] (max concentration tested 2500 nM)	14.3%	7.45%	42.6%	0	0.34	0	2.53
CCNC(=O)Nc1ccc(-c2nc3c(c(N4CCOC[C@@H]4C)n2)CCN(C2COC2)C3)cc1 [RG-7603] (max concentration tested 2500 nM)	33.8%	32.4%	56.2%	0	3.02	1.5	6.56
O=S(=O)(c1cccc2c(O)nccc12)N1CCCNCC1 [Hydroxyfasudil] (max concentration tested 37500 nM)	21.6%	19.5%	12.7%	0	1.47	1.21	0.03
CCc1cc2c(cc1N1CCC(N3CCOCC3)CC1)C(C)(C)c1[nH]c3cc(C#N)ccc3c1C2=O [Alectinib] (max concentration tested 1000 nM)	2.24%	42.8%	17.5%	0	0	7.01	0.28
CNC(=O)CN1CCC(Oc2cc3c(Nc4cccc(Cl)c4F)ncnc3cc2OC)CC1 [Sapitinib] (max concentration tested 1000 nM)	11.1%	9.33%	15.3%	0	0.17	0	0.48
CCNc1nc(Nc2cc(F)c(C(=O)N3CCOCC3)cc2OC)ncc1C(F)(F)F [GNE-7915] (max concentration tested 1000 nM)	12.4%	8.52%	0.1%	0	0.19	0	0
NC(=S)N/N=C/c1ncccc1N [Triapine] (max concentration tested 10000 nM)	63.9%	65.6%	63.8%	0.94	5.68	4.81	2.82
CN(C)C(=O)c1ccc(S(=O)(=O)c2ccc(NC(=O)[C@@](C)(O)C(F)(F)F)c(Cl)c2)cc1 [AZD7545] (max concentration tested 10000 nM)	17.4%	57%	2.29%	0	0.76	2.45	0
COC(=O)N[C@@H](C)CNc1nccc(-c2cn(C(C)C)nc2-c2cc(Cl)cc(NS(C)(=O)=O)c2F)n1 [Encorafenib] (max concentration tested 1000 nM)	14.4%	14%	3.93%	0	0.12	2.1	0
CCc1cc(Nc2nccc(-c3c(-c4ccc(OC)c(C(=O)Nc5c(F)cccc5F)c4)nc4ccccn34)n2)c(OC)cc1N1CCC(N2CCN(S(C)(=O)=O)CC2)CC1 (max concentration tested 10000 nM)	7.21%	4.32%	52.3%	0	0.89	0	16.1
O=C(CCCCCCNC(=O)c1cnc(N(c2ccccc2)c2ccccc2)nc1)NO [Rocilinostat] (max concentration tested 10000 nM)	81.2%	58.4%	89.5%	0.39	6.66	3.58	9.5
Cc1cc2c(C(=O)NC[C@H](C)c3ccccc3)c(O)c(O)cc2c(O)c1-c1c(C)cc2c(C(=O)NC[C@H](C)c3ccccc3)c(O)c(O)cc2c1O [Sabutoclax] (max concentration tested 25000 nM)	99.7%	96.5%	89.2%	0	19.6	4.91	17.3
CN(C)C(=N)NC(=N)N [Metformin] (max concentration tested 100000 nM)	7.35%	19.4%	-0.71%	0	0	0.59	0
Cc1cccc(-c2[nH]c(CNc3ccccc3F)nc2-c2ccc3ncnn3c2)n1 [TEW-7197] (max concentration tested 2500 nM)	13.1%	23.2%	-10.6%	0	0.08	1.89	0
O=C(Nc1cccc(NC(=O)c2cccc(O)c2O)c1)c1cccc(O)c1O [MST-312] (max concentration tested 10000 nM)	90.7%	86.4%	96.2%	0.02	10.8	4.53	5.45
Cc1nc(=O)c2cc(CN(C)c3ccc(C(=O)N[C@@H](CCC(=O)O)C(=O)O)s3)ccc2[nH]1 [Raltitrexed] (max concentration tested 1000 nM)	71.5%	14.7%	29.9%	0	15.1	3.16	6.69
